In ChEMBL document CHEMBL1909046, “DrugMatrix in vitro pharmacology data”:

What was measured:
Cytochrome P450 1A2 = target: T1, Cytochrome P450 1A2 (Homo sapiens, UniProt P05177); details: bti-tn-5b1-4; also: in other assays of this panel Not Active means under 50% inhibition at 10 µM
T1 sequence (P05177 whole entry): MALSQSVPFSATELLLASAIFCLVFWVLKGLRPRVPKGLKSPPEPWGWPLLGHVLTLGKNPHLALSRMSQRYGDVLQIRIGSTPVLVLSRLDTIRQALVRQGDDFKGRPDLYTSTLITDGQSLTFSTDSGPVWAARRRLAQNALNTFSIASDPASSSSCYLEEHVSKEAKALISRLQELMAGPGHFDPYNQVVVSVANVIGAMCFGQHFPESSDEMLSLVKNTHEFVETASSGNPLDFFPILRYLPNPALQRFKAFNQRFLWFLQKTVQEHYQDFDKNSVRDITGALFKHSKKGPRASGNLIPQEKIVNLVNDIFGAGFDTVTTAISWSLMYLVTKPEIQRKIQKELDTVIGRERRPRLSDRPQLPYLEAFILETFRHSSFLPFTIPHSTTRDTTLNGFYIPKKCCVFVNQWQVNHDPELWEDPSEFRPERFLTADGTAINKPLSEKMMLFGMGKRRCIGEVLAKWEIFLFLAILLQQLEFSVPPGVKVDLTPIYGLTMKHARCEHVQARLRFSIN

[1] = target: Beta-1 adrenergic receptor (Homo sapiens, UniProt P08588); test: DRUGMATRIX: Adrenergic beta1 radioligand binding (ligand: [125I] Cyanopindolol); format: cell membranes, CHO-K1, Membrane; details: cho-k1; Not Active = under 50% inhibition at 10 µM
Beta-1 adrenergic receptor, sequence (P08588 whole entry): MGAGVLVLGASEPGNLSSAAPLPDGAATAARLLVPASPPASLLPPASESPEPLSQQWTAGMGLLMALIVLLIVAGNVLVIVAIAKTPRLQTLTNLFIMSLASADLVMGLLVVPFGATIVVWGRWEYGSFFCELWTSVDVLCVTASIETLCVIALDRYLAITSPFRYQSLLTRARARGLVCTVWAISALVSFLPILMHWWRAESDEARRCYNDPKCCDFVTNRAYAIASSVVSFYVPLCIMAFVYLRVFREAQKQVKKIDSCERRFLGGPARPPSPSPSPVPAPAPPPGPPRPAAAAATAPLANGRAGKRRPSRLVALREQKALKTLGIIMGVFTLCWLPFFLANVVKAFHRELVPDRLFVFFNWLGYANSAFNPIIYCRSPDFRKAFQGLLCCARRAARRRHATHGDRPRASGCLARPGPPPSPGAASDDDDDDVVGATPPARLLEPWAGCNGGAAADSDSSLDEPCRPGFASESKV

[2] = target: Tyrosine-protein kinase Fyn (Homo sapiens, UniProt P06241); test: biochemical; format: cell-based, Insect cells; details: insect cells;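 also: enzymatic inhibition of Fyn kinase activity measured with Poly(Glu:Tyr) as the phosphorylation substrate; in other assays of this panel Not Active means under 50% inhibition at 10 µM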
Tyrosine-protein kinase Fyn, sequence (P06241 whole entry): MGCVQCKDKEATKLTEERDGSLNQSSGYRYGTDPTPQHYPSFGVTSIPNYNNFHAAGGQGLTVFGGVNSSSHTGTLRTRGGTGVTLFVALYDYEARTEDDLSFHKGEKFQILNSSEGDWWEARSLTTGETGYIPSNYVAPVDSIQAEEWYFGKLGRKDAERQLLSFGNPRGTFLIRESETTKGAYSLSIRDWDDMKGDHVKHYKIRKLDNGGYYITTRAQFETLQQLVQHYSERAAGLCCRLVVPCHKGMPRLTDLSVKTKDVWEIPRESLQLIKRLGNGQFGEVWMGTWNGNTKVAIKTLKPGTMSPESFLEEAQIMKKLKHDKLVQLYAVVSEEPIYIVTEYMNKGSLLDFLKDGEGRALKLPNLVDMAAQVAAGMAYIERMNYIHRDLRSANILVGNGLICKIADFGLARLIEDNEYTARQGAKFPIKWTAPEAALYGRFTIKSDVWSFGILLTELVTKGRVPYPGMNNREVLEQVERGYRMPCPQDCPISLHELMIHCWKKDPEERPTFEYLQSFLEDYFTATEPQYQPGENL

Cathepsin G = target: T2, Cathepsin G (Homo sapiens, UniProt P08311); test: biochemical; format: tissue-based, Neutrophil; details: neutrophil;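 also: inhibition of Cathepsin G enzyme activity, tested on an AMC-conjugated peptide substrate; in other assays of this panel Not Active means under 50% inhibition at 10 µM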
T2 sequence (P08311 whole entry): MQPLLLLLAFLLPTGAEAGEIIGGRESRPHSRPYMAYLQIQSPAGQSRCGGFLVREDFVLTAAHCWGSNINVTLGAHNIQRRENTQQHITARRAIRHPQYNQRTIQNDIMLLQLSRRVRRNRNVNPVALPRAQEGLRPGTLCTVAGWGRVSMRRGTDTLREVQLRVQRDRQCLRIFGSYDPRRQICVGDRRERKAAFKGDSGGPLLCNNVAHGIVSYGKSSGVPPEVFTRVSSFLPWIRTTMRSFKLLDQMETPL

[3] = target: T3, 5-hydroxytryptamine receptor 1A (Rattus norvegicus, UniProt P19327); format: cell membranes, CHO-K1, Membrane; also: in other assays of this panel Not Active means under 50% inhibition at 10 µM
T3 sequence (P19327 whole entry): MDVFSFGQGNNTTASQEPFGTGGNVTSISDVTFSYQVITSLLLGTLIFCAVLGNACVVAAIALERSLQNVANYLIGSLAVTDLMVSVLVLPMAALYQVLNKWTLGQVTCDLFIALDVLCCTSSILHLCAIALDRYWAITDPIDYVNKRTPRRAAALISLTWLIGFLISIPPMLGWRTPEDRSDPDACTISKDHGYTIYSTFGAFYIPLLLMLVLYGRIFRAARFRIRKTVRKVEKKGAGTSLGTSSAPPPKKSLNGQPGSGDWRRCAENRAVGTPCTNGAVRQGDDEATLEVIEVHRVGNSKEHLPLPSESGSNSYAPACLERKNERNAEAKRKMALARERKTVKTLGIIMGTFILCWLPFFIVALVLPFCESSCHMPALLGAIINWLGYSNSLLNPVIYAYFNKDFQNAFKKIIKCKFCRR

[4] = target: T4, Neuropeptide Y receptor type 1 (Homo sapiens, UniProt P25929); format: cell membranes, Membrane; details: sk-n-mc; also: in other assays of this panel Not Active means under 50% inhibition at 10 µM
T4 sequence (P25929 whole entry): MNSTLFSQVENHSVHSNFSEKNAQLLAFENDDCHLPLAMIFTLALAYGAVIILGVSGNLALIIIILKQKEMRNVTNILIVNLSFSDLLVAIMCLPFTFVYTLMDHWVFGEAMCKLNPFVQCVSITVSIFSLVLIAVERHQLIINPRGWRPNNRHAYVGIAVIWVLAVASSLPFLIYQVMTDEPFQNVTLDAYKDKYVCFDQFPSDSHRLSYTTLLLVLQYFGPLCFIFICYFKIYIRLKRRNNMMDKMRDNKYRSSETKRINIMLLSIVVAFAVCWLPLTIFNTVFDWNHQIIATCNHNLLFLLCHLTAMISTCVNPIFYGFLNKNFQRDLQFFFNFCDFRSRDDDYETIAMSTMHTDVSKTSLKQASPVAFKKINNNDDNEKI

[5] = target: Receptor tyrosine-protein kinase erbB-2 (Homo sapiens, UniProt P04626); format: cell-based; details: insect cells
Receptor tyrosine-protein kinase erbB-2, sequence (P04626 whole entry): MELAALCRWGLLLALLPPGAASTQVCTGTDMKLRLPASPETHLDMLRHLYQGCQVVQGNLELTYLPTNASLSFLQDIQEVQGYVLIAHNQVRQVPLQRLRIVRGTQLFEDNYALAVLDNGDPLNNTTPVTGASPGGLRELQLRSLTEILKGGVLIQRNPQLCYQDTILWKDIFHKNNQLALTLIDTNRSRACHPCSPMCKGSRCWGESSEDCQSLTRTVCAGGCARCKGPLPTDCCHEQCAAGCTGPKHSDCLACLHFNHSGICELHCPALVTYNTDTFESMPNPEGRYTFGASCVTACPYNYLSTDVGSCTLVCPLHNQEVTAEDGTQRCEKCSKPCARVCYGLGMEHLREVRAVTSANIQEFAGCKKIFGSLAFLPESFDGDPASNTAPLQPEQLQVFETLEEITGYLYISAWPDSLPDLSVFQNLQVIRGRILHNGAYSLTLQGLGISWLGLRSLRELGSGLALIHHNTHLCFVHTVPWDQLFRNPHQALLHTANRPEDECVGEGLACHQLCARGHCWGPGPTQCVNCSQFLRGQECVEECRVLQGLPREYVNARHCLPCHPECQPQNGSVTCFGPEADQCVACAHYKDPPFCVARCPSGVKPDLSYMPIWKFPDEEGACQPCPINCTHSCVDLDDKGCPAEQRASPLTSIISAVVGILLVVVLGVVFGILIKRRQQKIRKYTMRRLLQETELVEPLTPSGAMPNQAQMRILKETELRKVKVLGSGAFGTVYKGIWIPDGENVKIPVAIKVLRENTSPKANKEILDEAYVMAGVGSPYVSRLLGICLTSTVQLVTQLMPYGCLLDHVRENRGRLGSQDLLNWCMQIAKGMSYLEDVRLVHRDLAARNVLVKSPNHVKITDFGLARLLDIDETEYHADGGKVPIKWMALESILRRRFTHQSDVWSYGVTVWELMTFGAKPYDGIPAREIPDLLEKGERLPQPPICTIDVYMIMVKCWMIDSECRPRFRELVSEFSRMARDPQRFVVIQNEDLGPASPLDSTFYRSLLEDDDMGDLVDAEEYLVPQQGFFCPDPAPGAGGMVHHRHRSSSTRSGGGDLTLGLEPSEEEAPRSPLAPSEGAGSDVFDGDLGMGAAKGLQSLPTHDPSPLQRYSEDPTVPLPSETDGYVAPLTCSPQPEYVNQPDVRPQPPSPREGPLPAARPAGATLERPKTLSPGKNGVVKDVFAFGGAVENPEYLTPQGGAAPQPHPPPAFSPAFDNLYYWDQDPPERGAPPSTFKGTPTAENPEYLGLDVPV

[6] = target: Matrix metalloproteinase-9 (Homo sapiens, UniProt P14780); format: cell-based
Matrix metalloproteinase-9, sequence (P14780 whole entry): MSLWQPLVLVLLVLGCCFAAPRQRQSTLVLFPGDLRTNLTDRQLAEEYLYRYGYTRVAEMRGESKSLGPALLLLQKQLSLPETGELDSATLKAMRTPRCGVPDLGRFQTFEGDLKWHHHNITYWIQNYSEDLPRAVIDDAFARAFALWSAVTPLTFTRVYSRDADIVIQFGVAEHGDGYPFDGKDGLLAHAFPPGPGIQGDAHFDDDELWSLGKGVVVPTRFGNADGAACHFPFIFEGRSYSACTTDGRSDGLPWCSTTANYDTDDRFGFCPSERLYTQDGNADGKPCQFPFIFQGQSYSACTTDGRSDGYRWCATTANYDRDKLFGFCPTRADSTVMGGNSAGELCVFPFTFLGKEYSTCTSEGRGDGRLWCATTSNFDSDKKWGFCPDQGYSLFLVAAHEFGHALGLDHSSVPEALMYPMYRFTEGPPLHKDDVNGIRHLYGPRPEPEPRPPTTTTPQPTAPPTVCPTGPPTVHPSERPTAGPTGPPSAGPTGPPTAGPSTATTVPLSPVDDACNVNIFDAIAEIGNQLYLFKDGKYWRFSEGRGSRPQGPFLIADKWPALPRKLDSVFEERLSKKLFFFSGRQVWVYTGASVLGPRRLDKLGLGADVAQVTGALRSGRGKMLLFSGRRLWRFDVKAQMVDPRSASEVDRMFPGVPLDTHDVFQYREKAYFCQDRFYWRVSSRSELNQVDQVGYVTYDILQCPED

Insulin receptor = Insulin receptor (Rattus norvegicus, UniProt P15127); format: cell membranes, Wistar, Liver, Membrane; also: in other assays of this panel Not Active means under 50% inhibition at 10 µM
Insulin receptor, sequence (P15127 27-759 limits assumed): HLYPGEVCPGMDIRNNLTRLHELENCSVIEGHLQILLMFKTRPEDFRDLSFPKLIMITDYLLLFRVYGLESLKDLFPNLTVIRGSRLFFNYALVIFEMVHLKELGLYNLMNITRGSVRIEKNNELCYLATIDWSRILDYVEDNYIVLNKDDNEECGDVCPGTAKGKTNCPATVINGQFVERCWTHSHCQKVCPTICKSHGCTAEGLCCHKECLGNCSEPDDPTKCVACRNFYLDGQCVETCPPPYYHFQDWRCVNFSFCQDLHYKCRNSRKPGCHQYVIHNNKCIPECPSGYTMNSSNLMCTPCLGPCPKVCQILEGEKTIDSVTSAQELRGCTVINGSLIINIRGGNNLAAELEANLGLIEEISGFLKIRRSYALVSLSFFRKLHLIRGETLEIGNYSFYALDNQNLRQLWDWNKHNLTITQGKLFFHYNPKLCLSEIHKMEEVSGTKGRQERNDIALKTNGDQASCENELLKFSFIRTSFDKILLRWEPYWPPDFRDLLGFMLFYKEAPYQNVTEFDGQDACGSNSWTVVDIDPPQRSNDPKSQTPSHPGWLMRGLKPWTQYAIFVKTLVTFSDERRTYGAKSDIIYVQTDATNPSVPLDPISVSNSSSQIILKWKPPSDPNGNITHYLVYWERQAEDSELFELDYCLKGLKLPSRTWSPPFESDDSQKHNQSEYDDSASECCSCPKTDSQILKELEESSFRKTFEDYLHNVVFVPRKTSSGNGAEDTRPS
Insulin receptor, sequence (P15127 764-1383 limits assumed): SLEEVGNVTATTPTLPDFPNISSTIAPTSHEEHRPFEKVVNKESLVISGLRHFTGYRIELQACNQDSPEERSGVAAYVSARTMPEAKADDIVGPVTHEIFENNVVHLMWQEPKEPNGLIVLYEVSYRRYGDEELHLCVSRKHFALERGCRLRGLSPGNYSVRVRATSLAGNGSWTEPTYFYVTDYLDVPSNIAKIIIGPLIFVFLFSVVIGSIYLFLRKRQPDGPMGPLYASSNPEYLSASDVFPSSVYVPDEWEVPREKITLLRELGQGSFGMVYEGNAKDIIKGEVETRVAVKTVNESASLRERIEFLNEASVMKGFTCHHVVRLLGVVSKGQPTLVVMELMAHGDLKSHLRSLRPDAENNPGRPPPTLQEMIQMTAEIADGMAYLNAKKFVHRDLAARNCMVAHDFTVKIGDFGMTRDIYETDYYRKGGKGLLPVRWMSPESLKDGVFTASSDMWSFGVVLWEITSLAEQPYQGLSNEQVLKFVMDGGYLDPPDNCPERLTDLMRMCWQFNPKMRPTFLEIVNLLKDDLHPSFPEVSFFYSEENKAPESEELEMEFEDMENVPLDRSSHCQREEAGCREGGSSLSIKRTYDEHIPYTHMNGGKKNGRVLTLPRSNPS

Structure (SMILES) | IC50 (Cytochrome P450 1A2) | Ki (Cytochrome P450 1A2) | IC50 [1] | IC50 [2] | IC50 (Cathepsin G) | IC50 ([3]; cho-k1) | IC50 [4] | IC50 [5] | IC50 [6] | IC50 (Insulin receptor) | IC50 ([3]; read-out: IC50) [nM] | Ki ([3]; read-out: Ki) [nM]
Nc1nc(F)nc2c1ncn2[C@@H]1O[C@H](CO)[C@@H](O)[C@@H]1O [FLUDARABINE] | Not Active | Not Active | Not Active | Not Active | Not Active | Not Active | Not Active | Not Active | Not Active | Not Active |  | 
NC(=O)NC(=O)Cc1ccccc1 [PHENACEMIDE] | Not Active | Not Active | Not Active | Not Active | Not Active | Not Active | Not Active | Not Active | Not Active | Not Active |  | 
Nc1ccc(C(=O)O)c(O)c1 [AMINOSALICYLIC ACID] | Not Active | Not Active | Not Active | Not Active | Not Active | Not Active | Not Active | Not Active | Not Active | Not Active |  | 
O=c1[nH]cnc2c1ncn2[C@H]1CC[C@@H](CO)O1 [DIDANOSINE] | Not Active | Not Active | Not Active | Not Active | Not Active | Not Active | Not Active | Not Active | Not Active | Not Active |  | 
NC(=O)CN1CCCC1=O | Not Active | Not Active | Not Active | Not Active | Not Active | Not Active | Not Active | Not Active | Not Active | Not Active |  | 
Clc1cc(Cl)c(OCC#CI)cc1Cl [HALOPROGIN] | Not Active | Not Active | Not Active | Not Active | Not Active | Not Active | Not Active | Not Active | Not Active | Not Active |  | 
O=C(NCCN1CCOCC1)c1ccc(Cl)cc1 [MOCLOBEMIDE] | Not Active | Not Active | Not Active | Not Active | Not Active | Not Active | Not Active | Not Active | Not Active | Not Active |  | 
CC(C)Cc1ccc([C@H](C)C(=O)O)cc1 [DEXIBUPROFEN] | Not Active | Not Active | Not Active | Not Active | Not Active | Not Active | Not Active | Not Active | Not Active | Not Active |  | 
COc1ccc(C[C@H](N)C(=O)N[C@H]2[C@@H](O)[C@H](n3cnc4c(N(C)C)ncnc43)O[C@@H]2CO)cc1 [PUROMYCIN] | Not Active | Not Active | Not Active | Not Active | Not Active | Not Active | Not Active | Not Active | Not Active | Not Active |  | 
CCC1(c2ccccc2)C(=O)NC(=O)NC1=O [PHENOBARBITAL] | Not Active | Not Active | Not Active | Not Active | Not Active | Not Active | Not Active | Not Active | Not Active | Not Active |  | 
O=C1c2ccccc2C(=O)C1c1ccccc1 [PHENINDIONE] | Not Active | Not Active | Not Active | Not Active | Not Active | Not Active | Not Active | Not Active | Not Active | Not Active |  | 
OC[C@H]1OC2C3[C@@H](CO)OC(O[C@H]4[C@H](O)[C@@H](O)[C@@H](O[C@H]5[C@H](O)[C@@H](O)[C@@H](O[C@H]6[C@H](O)[C@@H](O)[C@@H](O[C@H]7[C@H](O)[C@@H](O)[C@@H](O[C@H]8[C@H](O)[C@@H](O)[C@@H](O[C@H]9[C@H](O)[C@@H](O)C(OC1[C@H](O)[C@H]2O)O[C@@H]9CO)O[C@@H]8CO)O[C@@H]7CO)O[C@@H]6CO)O[C@@H]5CO)O[C@@H]4CO)[C@H](O)[C@H]3O | Not Active | Not Active | Not Active | Not Active | Not Active | Not Active | Not Active | Not Active | Not Active | Not Active |  | 
CO[C@H]1O[C@@H]2O[C@@]3(C)CC[C@H]4[C@H](C)CC[C@@H]([C@H]1C)[C@@]24OO3 | Not Active | Not Active | Not Active | Not Active | Not Active | Not Active | Not Active | Not Active | Not Active | Not Active |  | 
CC(C)Cn1cnc2c(N)nc3ccccc3c21 [IMIQUIMOD] | Not Active | Not Active | Not Active | Not Active | Not Active | Not Active | Not Active | Not Active | Not Active | Not Active |  | 
O=C(O)COC(=O)Cc1ccccc1Nc1c(Cl)cccc1Cl [ACECLOFENAC] | Not Active | Not Active | Not Active | Not Active | Not Active | Not Active | Not Active | Not Active | Not Active | Not Active |  | 
C#C[C@]1(O)CC[C@H]2[C@@H]3CCC4=CC(=O)CC[C@@H]4[C@H]3CC[C@@]21C [NORETHINDRONE] | Not Active | Not Active | Not Active | Not Active | Not Active | Not Active | Not Active | Not Active | Not Active | Not Active |  | 
CC(C)(C#N)c1cc(Cn2cncn2)cc(C(C)(C)C#N)c1 [ANASTROZOLE] | Not Active | Not Active | Not Active | Not Active | Not Active | Not Active | Not Active | Not Active | Not Active | Not Active |  | 
Cc1cc(C(C)(C)C)c(O)c(C)c1CC1=NCCN1 [OXYMETAZOLINE] | Not Active | Not Active | Not Active | Not Active | Not Active |  | Not Active | Not Active | Not Active | Not Active | 5.61 | 3.21
O=C(Nc1ccc(Cl)c(Cl)c1)c1cc(Cl)cc(Cl)c1O [3,3',4',5-TETRACHLOROSALICYLANILIDE] | Not Active | Not Active | Not Active | Not Active | Not Active | Not Active | Not Active | Not Active | Not Active | Not Active |  | 
O=C(O)CO [GLYCOLIC ACID] | Not Active | Not Active | Not Active | Not Active | Not Active | Not Active | Not Active | Not Active | Not Active | Not Active |  | 
